The text below walks through data of PubChem BioAssay (NCI).

Test systems include MDA-MB-435; NCI/ADR-RES ovarian; HOP-92 NSCLC; RPMI-8226 leukemia; BT-549 breast; HCT-116 colon; OVCAR-8 ovarian; OVCAR-4 ovarian; OVCAR-5 ovarian; NCI-H226 lung.
Common to all, as to assay: NCI-60 cell line screen, 48 h

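Cultured in 96-well plates, cells were exposed to test compound for 48 hours across five concentrations. At the GI50, growth is halved. The concentration for full growth arrest is given as TGI.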

As for `CCCC(=O)Nc1cc2c3c(c1)CCCN3CCC2`, the TGI in the experiment with MDA-MB-435, with NCI/ADR-RES ovarian, in the experiment with HOP-92 NSCLC, in the experiment with RPMI-8226 leukemia, with BT-549 breast and in the experiment with HCT-116 colon was > 10 µM each time. For the same molecule, the TGI with OVCAR-8 ovarian, with OVCAR-4 ovarian and in the experiment on OVCAR-5 ovarian was > 10 µM throughout.
Turning to `Cn1cc(-c2csc(-c3c[nH]c4ccc(F)cc34)n2)c2cnccc21`, the GI50 was 1.85 µM in the experiment on MDA-MB-435; 1.98 µM in the experiment on NCI/ADR-RES ovarian; 1.49 µM in the experiment on HOP-92 NSCLC; 1.88 µM with NCI-H226 lung; 1.63 µM in the experiment with BT-549 breast; 1.22 µM with HCT-116 colon. Moreover, the GI50 in the experiment on OVCAR-4 ovarian was 1.6 µM; in the experiment with OVCAR-5 ovarian it was 1.91 µM. Also, the TGI in the experiment on MDA-MB-435 is 3.31 µM; in the experiment with NCI/ADR-RES ovarian, 3.98 µM; in the experiment with HOP-92 NSCLC it was 3.09 µM; in the experiment on NCI-H226 lung it was 4.03 µM; in the experiment on BT-549 breast, 3.06 µM; in the experiment on HCT-116 colon, 2.56 µM. Also, the results for the TGI with OVCAR-4 ovarian and in the experiment on OVCAR-5 ovarian were 3.06 µM and 3.36 µM, respectively.
As to `O=C1OCC2=C1C(c1cccc(Br)c1)c1cc3c(cc1N2CCO)CCC3` (centres undefined), the GI50 in the experiment on MDA-MB-435 is 0.0132 µM; in the experiment with NCI/ADR-RES ovarian, 0.025 µM; in the experiment on NCI-H226 lung it was 0.116 µM; in the experiment with RPMI-8226 leukemia it was 0.183 µM; in the experiment with BT-549 breast, 0.209 µM; in the experiment with HCT-116 colon it was 0.0904 µM. The results for the GI50 in the experiment on OVCAR-8 ovarian, in the experiment on OVCAR-4 ovarian and in the experiment with OVCAR-5 ovarian were 0.14 µM, 0.168 µM and 0.322 µM, respectively. In addition, the TGI in the experiment with MDA-MB-435 is 0.0423 µM; in the experiment with NCI/ADR-RES ovarian, 0.234 µM; with NCI-H226 lung, 0.761 µM; in the experiment on RPMI-8226 leukemia, 10 µM; in the experiment on BT-549 breast, 6.5 µM; in the experiment with HCT-116 colon, 3.04 µM. Further, the TGI worked out at 0.852 µM in the experiment on OVCAR-8 ovarian, 16 µM in the experiment with OVCAR-4 ovarian and 10 µM in the experiment on OVCAR-5 ovarian.
Turning to `Nc1c(C(=O)Nc2ccncc2)sc2nc3c(cc12)CCCCCCCC3`, the GI50 was 0.869 µM in the experiment with MDA-MB-435; 0.921 µM in the experiment with NCI/ADR-RES ovarian; 0.761 µM in the experiment with HOP-92 NSCLC; 0.919 µM in the experiment on NCI-H226 lung; 1.23 µM in the experiment on RPMI-8226 leukemia; 0.838 µM in the experiment on BT-549 breast. In addition, the GI50 is 1.54 µM with OVCAR-8 ovarian, 0.861 µM in the experiment with OVCAR-4 ovarian and 0.897 µM in the experiment on OVCAR-5 ovarian. Moreover, the TGI in the experiment with MDA-MB-435 stood at 1.6 µM; in the experiment on NCI/ADR-RES ovarian, 1.78 µM; with HOP-92 NSCLC it was 1.49 µM; in the experiment with NCI-H226 lung it was 2.03 µM; with RPMI-8226 leukemia, 2.71 µM; in the experiment on BT-549 breast it was 1.6 µM. Besides, the TGI in the experiment on OVCAR-8 ovarian came out at 50 µM; with OVCAR-4 ovarian, 1.6 µM; in the experiment on OVCAR-5 ovarian, 1.64 µM.
With `COc1ccc(C(=O)/C=C/c2cc(-c3cc(OC)c(OC)c(OC)c3)n[nH]2)cc1OC`, the GI50 in the experiment with MDA-MB-435 was 1.34 µM; with NCI/ADR-RES ovarian it was 3.13 µM; in the experiment with RPMI-8226 leukemia, 0.241 µM; in the experiment with BT-549 breast, 1.44 µM; with OVCAR-8 ovarian it was 1.32 µM; in the experiment on OVCAR-4 ovarian, 2.69 µM. The GI50 in the experiment on OVCAR-5 ovarian was 1.59 µM. The TGI in the experiment with MDA-MB-435 is 2.71 µM; in the experiment with NCI/ADR-RES ovarian it was 15.7 µM; in the experiment on RPMI-8226 leukemia, 1.11 µM; in the experiment with BT-549 breast it was 2.9 µM; with OVCAR-8 ovarian, 2.73 µM; in the experiment with OVCAR-4 ovarian it was 16.6 µM. This molecule came in with a TGI in the experiment on OVCAR-5 ovarian of 3.03 µM.
On to `COc1ccc(Nc2nnc(-c3cc(O)ccc3O)s2)cc1`, for which the GI50 in the experiment on MDA-MB-435 is 9.22 µM; in the experiment with NCI/ADR-RES ovarian it was > 50 µM; with NCI-H226 lung, 11 µM; with RPMI-8226 leukemia, 8.67 µM; with BT-549 breast, 14.9 µM; in the experiment with HCT-116 colon, 21.9 µM. For the same molecule, the GI50 with OVCAR-8 ovarian is 30.4 µM; in the experiment on OVCAR-4 ovarian it was 11.7 µM; in the experiment on OVCAR-5 ovarian, > 50 µM. Also, the TGI was 19.1 µM in the experiment with MDA-MB-435; > 50 µM in the experiment with NCI/ADR-RES ovarian; 39.9 µM in the experiment with NCI-H226 lung; 21.1 µM in the experiment with RPMI-8226 leukemia; 43.6 µM with BT-549 breast; > 50 µM in the experiment with HCT-116 colon. Besides, the TGI in the experiment with OVCAR-8 ovarian, in the experiment with OVCAR-4 ovarian and in the experiment with OVCAR-5 ovarian was > 50 µM throughout.
Regarding `O=C1/C(=C/c2cccc(Cl)c2Cl)N=C(c2ccccc2)N1C1CC1`, the GI50 in the experiment on MDA-MB-435 was 11.1 µM; in the experiment with NCI/ADR-RES ovarian, 11.8 µM; in the experiment on NCI-H226 lung, 9.54 µM; in the experiment with RPMI-8226 leukemia, 3.88 µM; in the experiment with BT-549 breast it was 9.84 µM; in the experiment on HCT-116 colon, 8.98 µM. The results for the GI50 with OVCAR-8 ovarian and in the experiment with OVCAR-5 ovarian were 26.5 µM and 10.4 µM, respectively. In addition, the TGI in the experiment on MDA-MB-435 was 24.1 µM; in the experiment on NCI/ADR-RES ovarian, 31.1 µM; in the experiment on NCI-H226 lung, 23.2 µM; with RPMI-8226 leukemia, 14.5 µM; in the experiment with BT-549 breast, 24.1 µM; with HCT-116 colon, 18.9 µM. For the same molecule, the TGI is > 50 µM in the experiment on OVCAR-8 ovarian and 21.1 µM with OVCAR-5 ovarian.
